According to PubChem BioAssay AID2060605 (Molecular Pharmacology Branch, DTP, NCI, 2025):
Values joined by “and” are separate entries in the source; they are usually repeats but may differ in a detail not shown here. Equal entries are not always repeated.

System: 947758-054-R-J2-PDC spheroid growth, percent test/control
Experiment: Anticancer human tumor 947758-054-R-J2-PDC patient-derived colon adenocarcinoma cell line growth inhibition [CLK]
Conditions: spheroids with HUVEC and MSC; for viability, T/C: stronger effect = lower value; for IC50: curve of compound
How it was run: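 Multi-cell-type spheroids combined patient-derived tumor cells with HUVEC endothelial cells and human mesenchymal stem cells. Paired agents were dosed in half-log steps down from about clinical Cmax, or from 10 microM where Cmax was unknown.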
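Further: spheroids exposed to compounds for one week before readout.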
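Wherever viability, T/C is given: 100% = DMSO vehicle control wells.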

| IC50 | Structure (SMILES) | viability, T/C (compound 0.0316 µM) | viability, T/C (compound 0.1 µM) | viability, T/C (compound 0.316 µM) | viability, T/C (compound 1 µM) | viability, T/C (compound 3.16 µM) | viability, T/C (compound 10 µM) | viability, T/C (compound 0.00316 µM) | viability, T/C (compound 0.01 µM) |
| --- | --- | --- | --- | --- | --- | --- | --- | --- | --- |
| 6.6 µM and 6.47 µM | C=C(F)C(=O)N1CCN(c2nc(OCC3CCCN3C)nc3c2CCN(c2cccc4cccc(Cl)c24)C3)CC1CC#N (centres undefined) | 97% and 92.3% | 89.9% and 87.2% | 87% and 84% | 95.5% and 86.5% | 144% and 135% | 20% and 21.4% | – | – |
| 0.246 µM and 0.224 µM | COc1c(OCCCN2CCOCC2)ccc2c3n(c(=NC(=O)c4cnc(N)nc4)nc12)CCN3 | 111% and 105% | 90.1% and 72% | 38.9% and 41.3% | 23.1% and 22.7% | – | – | 107% and 111% | 80.8% and 104% |
